This is an account of results in PubChem BioAssay (NCI).

Values joined by “and” are separate entries in the source; they are usually repeats but may differ in a detail not shown here. Identical values can stand only once.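 Tested at 5 concentrations; 48 h exposure; 96-well plates; endpoints linearly interpolated, else capped at highest concentration. At the GI50, growth is halved. Definition used: TGI = concentration required for complete inhibition of growth.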 Where a SMILES comes first, the peptide text is derived from it. [ ]: non-standard residue; d: D form. Phe(ol) = N[C@H](CO)Cc1ccccc1; Aib = CC(C)(N)C(=O)O

For the assay, the system named is MDA-MB-468 breast. The assay can be described thus: NCI tumour cell line growth inhibition, 48 h.
As to `ClC/C=C/CSc1ncnc2nc[nH]c12`, the GI50 was greater than 100 µM and the TGI is greater than 100 µM.

Regarding `CC/C(=C/c1ccc(OC)cc1)[N+](=O)[O-]`, the GI50 is 1.83 µM and the TGI amounted to 3.63 µM.

With `COc1ccc(/C(=C(\c2ccccc2)[N+](=O)[O-])c2ccc(OCCN3CCCC3)cc2)cc1`, the GI50 is 1.75 µM and the TGI worked out at 4.27 µM.

For `COc1cc(/C=N/NC(=O)c2cnn3c2NC(c2ccccc2)C3)ccc1OCc1ccccc1` (configuration not stated), the GI50 is 0.318 µM and the TGI is 2.16 µM.

Consider `Cc1cc2nc3c4cc(C#N)ccc4n(CCN(C)C)c3nc2cc1C`, for which the GI50 was 1.33 µM and the TGI stood at 3.91 µM.

For `CCCCCCCCCC(=O)Oc1ccc(/C(=C(/C)c2ccccc2)c2ccc(OCCN3CCCC3)cc2)cc1`, the GI50 was 7.25 µM and the TGI is 14.7 µM.

Consider `Cc1ccc(C)c(N2CCN(c3ccncc3N)CC2)c1`, for which the GI50 was 3.4 µM and the TGI was found to be 18 µM.

In the case of `C#Cc1nc(C2=C(C)/C(=N/OCc3ccccc3)CC2)cs1`, the GI50 is 17.8 µM and the TGI is 94.7 µM.

Turning to `O=C1c2ccccc2-c2cn(Cc3ccccc3)c3cccc(c23)C1c1cccnc1` (configuration not stated), the GI50 is 2 µM and the TGI stood at 37.6 µM.

`CC(Nc1c(C#N)cnc2ccc(-c3cncc(O)c3)cc12)c1ccccc1` (configuration not stated): the GI50 is 0.913 µM and the TGI was 3.43 µM.

Take `CC(=O)NC(C)(C)C(=O)N1CCC[C@H]1C(=O)NC(C)(C)C(=O)N[C@@H](C)C(=O)NC(C)(C)C(=O)NC(C)(C)C(=O)N[C@@H](CCC(N)=O)C(=O)NC(C)(C)C(=O)N[C@H](C(=O)NC(C)(C)C(=O)NCC(=O)N[C@@H](CC(C)C)C(=O)NC(C)(C)C(=O)N1CCC[C@H]1C(=O)N[C@H](C(=O)NC(C)(C)C(=O)NC(C)(C)C(=O)N[C@@H](CCC(N)=O)C(=O)N[C@@H](CCC(N)=O)C(=O)N[C@H](CO)Cc1ccccc1)C(C)C)C(C)C` (Ac-[Aib]P[Aib]A[Aib][Aib]Q[Aib]V[Aib]GL[Aib]PV[Aib][Aib]QQ[Phe(ol)]): the GI50 was 0.209 µM and the TGI is 2.36 µM.

As to `COC(=O)[C@]12CC[C@@H](C)[C@H](C)[C@@H]1C1=CC[C@@H]3[C@@]4(C)C[C@@H](OC(C)=O)[C@H](OC(C)=O)[C@@](C)(COC(C)=O)[C@@H]4[C@H](O)C[C@@]3(C)[C@]1(C)CC2`, the GI50 was 0.832 µM and the TGI is 46 µM.

In the case of `Nc1nc(SCC#CCCl)c2[nH]cnc2n1`, the GI50 was 1.88 µM and the TGI was determined as 6.38 µM.

Take `CO/N=C1\CCc2c(sc(NC(=O)c3cccc(C(F)(F)F)c3)c2C(N)=O)C1`: the GI50 was 1.5 µM and the TGI came out at 5.91 µM.

For `CCNC(=O)N1CCc2cc(OC)c(OCCc3ccc(OC)cc3)cc2C1c1ccc([N+](=O)[O-])cc1C` (configuration not stated), the GI50 was 1.37 µM and the TGI was 4.78 µM.

With `CCCCCn1sc(=O)n(Cc2ccc(CNC(=O)C(C)c3ccc(CC(C)C)cc3)cc2)c1=O` (configuration not stated), the GI50 is 0.945 µM and the TGI came to 2.45 µM.

In the case of `COc1ccc(/C=C\c2cc(OC)c(OC)c(OC)c2)cc1NC(=O)/C=C/c1cc(OC)c(OC)c(OC)c1`, the GI50 was 1.82 µM and the TGI turned out to be 6.66 µM.

For `Cc1cnc(C(=O)Nc2nc3ccc(S(=O)(=O)Nc4ccc(C(C)(C)C)cc4)cc3[nH]2)cn1`, the GI50 is 0.27 µM and the TGI was found to be 1.73 µM.

`O=C(/C=C/c1ccco1)Nc1ncc(Cc2cc(Cl)ccc2Cl)s1`: the GI50 was 0.15 µM and the TGI was greater than 46 µM.

With `O=C(NOCCO)c1ccc2cncn2c1Nc1ccc(I)cc1F`, the GI50 was > 10 µM and 22.3 µM; the TGI was greater than 100 µM.

With `CC1CCc2c(C(=O)Nc3ncc(Cc4cccc([N+](=O)[O-])c4)s3)csc2C1` (configuration not stated), the GI50 is 0.345 µM and the TGI was greater than 100 µM.

As for `COc1cc(/C=N\Nc2ccccc2)ccc1OC(=O)c1ccccc1`, the GI50 was 2.74 µM and the TGI worked out at 34.8 µM.

As to `N#Cc1cnn(C(=O)c2nn(-c3ccc(Cl)cc3)cc2O)c1N`, the GI50 is 0.948 µM and the TGI came out at 15.1 µM.

On to `NS(=O)(=O)c1cccc(Nc2cc(-c3ccc(F)cc3)[nH]n2)c1`, for which the GI50 was greater than 23.6 µM and the TGI is greater than 25 µM.

In the case of `Oc1ccccc1/C=N\NC(=S)Nc1ccc(F)cc1`, the GI50 was 2.53 µM and the TGI came to 26.5 µM.

Consider `COc1cc(F)c(F)c(Nc2ccc(I)cc2F)c1NS(=O)(=O)C1(CC(O)CO)CC1` (configuration not stated), for which the GI50 was 14.4 µM and the TGI is 47.7 µM.

As to `COc1cc([C@@H]2c3cc4c(cc3[C@@H](OC3OC5COC(C)OC5C(O)C3O)[C@H]3COC(=O)[C@H]23)OCO4)cc(OC)c1O` (some centres not stated), the GI50 was 2.73 µM and 2.12 µM; the TGI was 22.3 µM and 18.7 µM.

As to `CN1CCN(Cc2ccc(NC(=O)c3cncc(C#Cc4c(N)ncc5ccccc45)c3)cc2C(F)(F)F)CC1`, the GI50 was 0.818 µM and the TGI was 1.63 µM.

For the compound `O=C(NCCN1CCOCC1)c1cc2c(Oc3ccc(NC(=O)C4(C(=O)Nc5ccc(F)cc5)CC4)cc3)ccnc2[nH]1`, the GI50 is 2.31 µM and the TGI is 13.6 µM.

Turning to `COc1ccc([C@@H]2[C@@H](Cl)C(=O)N2c2cc(OC)c(OC)c(OC)c2)cc1C`, the GI50 is 0.0414 µM and the TGI was greater than 100 µM.

For the compound `CNC(=O)c1sc(-n2cnc3cc(OC)c(OC)cc32)cc1OCc1ccccc1C(F)(F)F`, the GI50 is greater than 19 µM and the TGI was greater than 25 µM.

For `COC(=O)c1sc(-n2cnc3cc(OC)c(OC)cc32)cc1OCc1ccccc1C(F)(F)F`, the GI50 is 3.72 µM and the TGI was greater than 25 µM.

Regarding `COc1cc(OC)c(/C=C/S(=O)(=O)Cc2ccc(OC)c(N)n2)c(OC)c1`, the GI50 was less than 0.01 µM and the TGI is greater than 100 µM.

In the case of `O=C(CC1(O)C(=O)Nc2ccc(Cl)cc21)c1ccc(C(=O)NCC2CCC3(CC2)OOC2(CCCCC2)OO3)cc1` (configuration not stated), the GI50 is 2.12 µM and the TGI worked out at 5.66 µM.

In the case of `CC[C@H](C)[C@H](NC(=O)CN(C)C)C(=O)N(C)[C@H](C[C@@H](OC(C)=O)c1nc(C(=O)NC23C4C5C2C2C3C4C52C(=O)OC)cs1)C(C)C` (some centres not stated), the GI50 is 0.147 µM and the TGI is greater than 33.2 µM.

As for `CC(C)(C)n1cc(-c2ccnc(NCCCNS(=O)(=O)c3cccc4ccccc34)c2)c(-c2cccc(O)c2)n1`, the GI50 is 2.04 µM and the TGI was determined as 5.39 µM.

`COc1cc(C(=O)/C=C/c2c[nH]c3ccccc23)cc(OC)c1OC`: the GI50 was 0.0857 µM and the TGI is 1.61 µM.

Consider `O=C1c2ccc3c4c(ccc(c24)C(=O)N1CCCCO)C(=O)N(CCCCO)C3=O`, for which the GI50 is 1.21 µM and the TGI worked out at 3.22 µM.

On to `COc1cccc(/C=C\C(=O)c2ccccc2)c1`, for which the GI50 is 2.14 µM and the TGI was 6.49 µM.

Consider `C#CCn1cccc1CNc1ccc(OC)cc1`, for which the GI50 is 14.2 µM and the TGI was 60.5 µM.

For `N#Cc1ccc2c(-c3ccnc(NC4CC4)n3)c(-c3ccc(F)cc3)nn2c1`, the GI50 is greater than 24.2 µM and the TGI was greater than 25 µM.
